Source: paper PMC12684298, “The Parkinson's Disease Drug Tolcapone and Analogues are Potent Glycomimetic Lectin Inhibitors of Pseudomonas aeruginosa LecA” (Angewandte Chemie (International Ed. in English), 2025)
“And” between values parts separate entries of the source, which are not always exact repeats. Equal values may be shown once. Read-outs that look alike come from different tables or passages of the source.

What was measured:
LecA [1] = target: T1, LecA (Pseudomonas aeruginosa, UniProt Q05097); test: Library screening using the FP competitive binding assay (three concentrations); settings: read-out: Activity [%] (% inhibition relative to 500 µM pNPGal)
T1 construct: made in house; host or cells: E. coli BL21 (DE3), plasmid pET25pa11
T1 sequence (Q05097 whole entry): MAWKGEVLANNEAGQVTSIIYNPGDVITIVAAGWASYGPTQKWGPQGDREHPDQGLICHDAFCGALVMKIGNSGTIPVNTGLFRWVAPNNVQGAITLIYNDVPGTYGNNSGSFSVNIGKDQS
From the text: Next, we screened a library of catechols from F. Hoffmann‐La Roche, the developer of Tolcapone, in the competitive binding assay to establish a structure–activity relationship. To this end, two sets of compounds with a molecular cut‐off of 500 Da were chosen: a first set of 342 compounds contained derivatives of Tolcapone, while a second set of 3222 compounds comprised catechols covering a larger chemical space. […] Tests were run in a 384‐well‐plate format at three concentrations (first set at 125, 32, and 4 µM, second set at 100, 25, and 3 µM) in presence of 10% DMSO and 250 µM 2‐mercaptoethanol to prevent interference by a potential unspecific reactivity of electron‐rich catechols as established earlier.^[ [30] ^]
The screening followed the same assay by Joachim et al.^[2] as described above. Compounds in DMSO (1 µL with the appropriate concentration) were plated using a robot into black 384-well microtiter plates (Greiner Bio-One, Germany, cat no 781900) by the Roche compound handling facility at four replicates per concentration and compound. A mixture of LecA, sulfo-Cy5-Gal and 2-mercaptoethanol in TBS/Ca (20 mM Tris, 147 mM NaCl, 2.6 mM KCl at pH 7.4 supplemented with 1 mM CaCl2) with DMSO was added at HIPS. Final concentrations in both screening rounds were the following: 5 µM LecA, 250 µM 2-mercaptoethanol, 10 nM sulfo-Cy5-Gal and 10% DMSO. Final concentrations of the 342 compounds of the first screening round were 125 µM, 32 µM and 4 µM. The 3222 compounds of the second screening round were tested at final concentrations of 100 µM, 25 µM and 3 µM. The plate was sealed (EASYseal, Greiner Bio-One, cat no 676001), briefly centrifuged and incubated at room temperature in the dark under shaking conditions. Fluorescence intensities were measured after 1 h and 24 h using a PheraStar FS plate reader (BMG Labtech GmbH, Germany) with spectral filters for excitation at 590 nm and emission at 675 nm and polarization was calculated after blank values of 5 µM LecA in TBS/Ca buffer with 250 µM 2-mercaptoethanol and 10% DMSO were subtracted from the test compounds. The data were analysed using the MARS Data Analysis software. […] All stated values are the average including the standard deviation based on three replicates for 100 µM and four replicates in the case of compounds at 125 µM.

LecA [2] = target: T1, LecA; settings: previous hits; cited from earlier work
LecA [3] = target: T1, LecA; test: biochemical; type: binding
Method: Therefore, we focused our attention on commercially available nitro‐catechols. Prominent derivatives are inhibitors of the enzyme catechol‐O‐methyltransferase (COMT) and approved drugs for the treatment of Parkinson's disease. Four commercial COMT inhibitors were thus evaluated in a previously reported competitive binding assay based on fluorescence polarisation (FP, Table 1, Figure 1).^[ [32] ^]
The competitive binding assay was performed in analogy to Joachim et al.^[2] 10 µL of a solution containing LecA (40 µM) and sulfo-Cy5-Gal (20 nM, synthesis described in Kuhaudomlarp, Siebs et al.^[5]) in TBS/Ca buffer (20 mM Tris, 147 mM NaCl, 2.6 mM KCl at pH 7.4 supplemented with 1 mM CaCl2) were distributed in into wells of a black 384-well microtiter plate (Greiner Bio-One, Germany, cat no 781900). Then, 10 µL of serial dilutions of compounds (3 mM to 1.5 µM, dilution factor 0.5) in TBS/Ca with 40% DMSO were added in technical triplicates. Final concentrations after mixing were the following: 1.5 mM – 0.73 µM compound, 20 µM LecA, 10 nM sulfo-Cy5-Gal and 20% DMSO. The plate was sealed (EASYseal, Greiner Bio-One, cat no 676001), briefly centrifuged and incubated at room temperature in the dark under shaking conditions. Fluorescence intensity was measured after 1 h and 4 h using a PheraStar FS plate reader (BMG Labtech GmbH, Germany) with spectral filters for excitation at 590 nm and emission at 675 nm and polarization was calculated after blank values of 20 µM LecA in TBS/Ca buffer with 20% DMSO were subtracted from the test compounds. The data were analysed using the four-parameter variable slope model of the MARS Data Analysis software. The top and bottom plateau were assigned based on the control compound methyl α-d-galactoside and the data was reanalysed with these fixed values. If not mentioned otherwise, the experiment was repeated at least three times for each compound and the average and standard deviation are given. In case Triton X-100 was used it was added to the TBS/Ca buffer before the assay.

LecA [4] = target: T1, LecA; test: biochemical; type: binding; settings: ITC
Method: Isothermal titration calorimetry was performed on a MicroCal PEAQ-ITC (Malvern Panalytical) at 25 °C and 750 rpm stirring. The cell was filled with LecA (75 - 111 µM) in TBS/Ca buffer (20 mM Tris, 147 mM NaCl, 2.6 mM KCl at pH 7.4 supplemented with 1 mM CaCl2) with 20% DMSO and titrated with ligand (0.75 mM or 1.5 mM, 19 injections) in the same buffer. Data were analysed using the one binding site model in the MicroCal PEAQ-ITC analysis software (Malvern Panalytical). The first injection of each titration was excluded and the baseline subtracted for the final figures. Three titration per compound were performed and the average as well as standard deviation are given.

LecA [5] = target: T1, LecA; test: Ligand-observed 19F NMR binding and competitive displacement with pNPGal; settings: for 19F NMR peak intensity [%]: 50 µM ligand
Method: The presence of two fluorine atoms in the high affinity ligand 33 enabled another orthogonal LecA binding experiment (Figure 5c). In analogy to Denavit et al.,^[ [34] ^] ligand‐observed ^19F NMR spectra of 50 µM 33 were recorded in absence and in presence of LecA (100 µM). […] Importantly, the ligand's fluorine signal was restored when pNPGal was added as competitor molecule, indicating the specific and reversible catechol – LecA interaction.
RO0412970 was mixed with trifluoroacetic acid (TFA) as internal standard in non-deuterated TBS/Ca (20 mM Tris, 147 mM NaCl, 2.6 mM KCl at pH 7.4 supplemented with 1 mM CaCl2) and 10% DMSO-d6. From this mixture, one sample with LecA and one without LecA (as control) were prepared. […] Directly after the addition, spectra of both samples were recorded and the data was analysed with MestReNova 14.2.0. The spectra were referenced to TFA (-75.6 ppm) and the peak intensity of RO412970 compared to the internal standard TFA was calculated.

[6] = IC50, extended dose-response analysis, 20% DMSO, no 2-mercaptoethanol, three experiments
[7] = IC50 in presence of 0.01% Triton X-100, FP assay, 0.01% Triton X-100, one replicate
[8] = IC50 in presence of 0.057% Triton X-100, FP assay, 0.057% Triton X-100, one replicate
[9] = individual replicate (Repl. 1-3)
[10] = KD, 25 °C, 20% DMSO, average of three titrations
[11] = KD, individual replicate (Repl. 1-3)

## O=C(c1cc(O)c(O)c([N+](=O)[O-])c1)C1CCCCC1 [compound 27]
LecA [1]
  inhibition at 100 µM: 23.4 ± 3.6%

## CCCCOC(=O)c1cc(O)c(O)c([N+](=O)[O-])c1 [compound 21]
LecA [1]
  inhibition at 100 µM: 22.9 ± 1.8%

## O=C(c1ccccc1)c1ccc(O)c(O)c1 [3,4‐dihydroxybenzophenone]
LecA [2]
  Kd: 3460 ± 410 µM

## Cc1ccc(C(=O)c2cc(O)c(O)c(C(N)=O)c2)cc1 [compound 11]
LecA [1]
  inhibition at 100 µM: 21.8 ± 3.4%

## Cc1ccc(C(=O)c2ccc(O)c(O)c2)cc1 [compound 6]
LecA [1]
  inhibition at 100 µM: 13.8 ± 3.9%

## Cc1noc(-c2cc(O)c(O)c([N+](=O)[O-])c2)n1 [compound 16]
LecA [1]
  inhibition at 100 µM: 9.4 ± 7.5%

## Cc1ccc(C(=O)c2cc(O)c(O)c(-c3nnn[nH]3)c2)cc1 [compound 14]
LecA [1]
  inhibition at 100 µM: 0.8 ± 8.7%

## O=C(c1cc(O)c(O)c([N+](=O)[O-])c1)c1ncc[nH]1 [compound 26]
LecA [1]
  inhibition at 100 µM: 16.8 ± 3.8%

## O=C(NCc1ccccc1)c1cc(O)c(O)c([N+](=O)[O-])c1 [compound 23]
LecA [1]
  inhibition at 100 µM: 26.6 ± 4.2%

## O=C(NC12CC3CC(CC(C3)C1)C2)c1cc(O)c(O)c([N+](=O)[O-])c1 [compound 24]
LecA [1]
  inhibition at 100 µM: 10 ± 3.6%

## CC(=O)Nc1cc(C(=O)c2ccc(C)cc2)cc(O)c1O [compound 10]
LecA [1]
  inhibition at 100 µM: 20.1 ± 2.8%

## O=C(Nc1ccc(F)cc1)c1cc(O)c(O)c([N+](=O)[O-])c1 [compound 22]
LecA [1]
  inhibition at 100 µM: 8.7 ± 3.3%

## O=C(c1cc(O)c(O)c([N+](=O)[O-])c1)c1c(F)cccc1F [compound 33]
LecA [3]; [6]
  IC50: 94 µM
LecA [3]; [7]
  IC50: 81 µM
LecA [3]; [8]
  IC50: 91 µM
LecA [4]; average of three titrations
  N (sites): 0.82 ± 0.03 and 0.820
  ΔG: -6.6 ± 0.096 kcal/mol and -6.6 kcal/mol
  ΔH: -5.83 ± 0.526 kcal/mol and -5.83 kcal/mol
LecA [4]; [9]
  -TΔS: -1.36 kcal/mol and -0.789 kcal/mol and -0.17 kcal/mol
  N (sites): 0.846 and 0.788 and 0.827
  ΔG: -6.67 kcal/mol and -6.62 kcal/mol and -6.5 kcal/mol
  ΔH: -5.31 kcal/mol and -5.83 kcal/mol and -6.33 kcal/mol
LecA [4]; [10]
  Kd: 15 µM
LecA [4]; [11]
  Kd: 13.2 µM and 14.4 µM and 17.3 µM
LecA [5]; 100 µM LecA, after pNPGal (1 mM)
  19F NMR peak intensity [%]: 79%
LecA [5]; 100 µM LecA, before pNPGal
  19F NMR peak intensity [%]: 1%
LecA [5]; no LecA, after pNPGal (1 mM), defined as 100%
  19F NMR peak intensity [%]: 100%
LecA [5]; no LecA, before pNPGal, relative to TFA standard
  19F NMR peak intensity [%]: 106%
LecA [5]; LecA, after pNPGal
  19F NMR intensity ratio catechol/TFA: 0.2160
LecA [5]; LecA, before pNPGal
  19F NMR intensity ratio catechol/TFA: 0.0036
LecA [5]; no LecA, after pNPGal
  19F NMR intensity ratio catechol/TFA: 0.2752
LecA [5]; no LecA, before pNPGal
  19F NMR intensity ratio catechol/TFA: 0.2923

## O=[N+]([O-])c1ccc(O[C@@H]2O[C@H](CO)[C@H](O)[C@H](O)[C@H]2O)cc1 [pNPGal, para‐nitrophenyl β‐D‐galactoside, reference compound]
LecA [4]; 25 °C, 20% DMSO, average of three titrations, read-out: KD
  Kd: 10.1 µM
LecA [4]; average of three titrations
  N (sites): 0.81 ± 0.09 and 0.810
  ΔG: -6.84 ± 0.072 kcal/mol and -6.84 kcal/mol
LecA [4]; [9]
  -TΔS: 5.83 kcal/mol and 4.64 kcal/mol and 5.02 kcal/mol
  N (sites): 0.722 and 0.801 and 0.908
  ΔG: -28.4 kJ/mol (2×) and -28.9 kJ/mol
  ΔH: -12.6 kcal/mol and -11.5 kcal/mol and -11.8 kcal/mol
LecA [4]; individual replicate (Repl. 1-3), read-out: KD
  Kd: 10.8 µM (2×) and 8.8 µM

## Cc1ccc(C(=O)c2cc([N+](=O)[O-])c(O)c(O)c2Cl)cc1 [compound 15]
LecA [3]; [6]
  IC50: 58 µM
LecA [3]; [7]
  IC50: 67 µM
LecA [3]; [8]
  IC50: 56 µM
LecA [1]
  inhibition at 100 µM: 96.7 ± 4%
LecA [4]; average of three titrations
  N (sites): 0.92 ± 0.05 and 0.922
  ΔG: -6.74 ± 0.14 kcal/mol and -6.74 kcal/mol
  ΔH: -5.45 ± 0.359 kcal/mol and -5.45 kcal/mol
LecA [4]; [9]
  -TΔS: -0.837 kcal/mol and -1.84 kcal/mol and -1.22 kcal/mol
  N (sites): 0.947 and 0.957 and 0.862
  ΔG: -6.6 kcal/mol and -6.88 kcal/mol and -6.74 kcal/mol
  ΔH: -5.76 kcal/mol and -5.04 kcal/mol and -5.52 kcal/mol
LecA [4]; [10]
  Kd: 12 µM
LecA [4]; [11]
  Kd: 15.1 µM and 9.3 µM and 11.5 µM

## CCOC(=O)c1cc(O)c(O)c([N+](=O)[O-])c1 [compound 20]
LecA [1]
  inhibition at 100 µM: 14 ± 4.2%

## Cc1ccc(C(=O)c2cc(O)c(O)c(O)c2)cc1 [compound 7]
LecA [1]
  inhibition at 100 µM: 7.5 ± 4.9%

## Nc1cc(Cl)ccc1-c1nc(-c2cc(O)c(O)c([N+](=O)[O-])c2)cs1 [compound 17]
LecA [1]
  inhibition at 100 µM: 15.2 ± 8.7%

## O=C(c1ccccc1)c1cc(O)c(O)c([N+](=O)[O-])c1 [compound 29]
LecA [1]
  inhibition at 100 µM: 41.8 ± 7.3%

## Cn1nc(-c2cc(O)c(O)c([N+](=O)[O-])c2)cc1O [compound 18]
LecA [1]
  inhibition at 100 µM: 1.9 ± 3.3%

## Cc1ccc(C(=O)c2cc(O)c(O)c(-c3nc(C)no3)c2)cc1 [compound 13]
LecA [3]; [6]
  IC50: 346 ± 36 µM
LecA [1]
  inhibition at 100 µM: 57.7 ± 3.8%

## O=C(c1cc(O)c(O)c([N+](=O)[O-])c1)c1nc2ccccc2[nH]1 [compound 28]
LecA [1]
  inhibition at 100 µM: 26.7 ± 3.6%

## Cc1ccc(C(=O)c2cc(O)c(O)c(C(=O)O)c2)cc1 [compound 9]
LecA [1]
  inhibition at 100 µM: 2.1 ± 2.9%

## Cc1ccc(C(=O)c2cc(O)c(O)c(C#N)c2)cc1 [compound 12]
LecA [1]
  inhibition at 100 µM: 20.2 ± 4.8%

## Cc1ccc(C(=O)c2cc(N)c(O)c(O)c2)cc1 [compound 8]
LecA [1]
  inhibition at 100 µM: 7.9 ± 3.4%
